# Settings: 0.1 mM, 1 mM, 10 mM, 20 mM citric acid vs 0 mM; Rituximab Protein A eluate 1.4 mg/mL, 0.02% (w/v) PS80, pH 6; 2 weeks and 4 weeks at 40° C.
# Method: A formulation buffer containing 25 mM L-His/L-His HCl at pH 6.0, 600 mM sucrose and 0.05% (w/v) PS80 was prepared. The solution was filtered over a 0.22 μm PVDF Durapore® sterile filter.
# A second solution of 40 mM citric acid at pH 6.0 was prepared and filtered over a 0.22 μm PVDF Durapore® sterile filter. In addition to the 40 mM citric acid stock solution, dilutions of the 40 mM citric acid solution at a target concentration of 20 mM, 2 mM and 0.2 mM using water were prepared.
# Five protein formulation samples were prepared each by spiking 320 μL of the downstream purification sample (Rituximab Protein A eluate, 18 g/L) into 1680 μL of the above prepared formulation buffer in five different particle-free Nalgene bottles. […]
# Analyzing polysorbate degradation in protein formulation samples 1.2 mL of each of the protein formulation sample were aliquoted into particle-free Nalgene tubes and placed into a 40° C. stability chamber. The samples were analysed after 2 week and 4 weeks of incubation using HPLC-FMA against a standard curve of intact PS80 in water.
# The HPLC-FMA measurement was performed using a high-performance liquid chromatography (HPLC) system (Waters Alliance e2695) equipped with an isocratic pump, fluorescence detector (Waters 2475 FLR Detector), auto sampler and knitted reaction coil 1 mL (Supelco #57410-U). […] Fluorescence was measured at λex=350 nm and λem=420 nm. […]
smiles,measurement,value
"O=C(O)CC(O)(CC(=O)O)C(=O)O [citric acid, Citric acid monohydrate]",PS80 concentration / polysorbate degradation in protein formulation,effective in reducing polysorbate degradation

# Reference: patent US20250114451A1, “REDUCING POLYSORBATE DEGRADATION IN PROTEIN FO[…] LOW AMOUNTS OF CITRIC ACID” (LONZA LTD, priority 2022, published 2025)
